Measurements published in patent publication US11840708B2, “Isogenic blood-brain barrier model” (Wisconsin Alumni Research Foundation, priority 2016, dated 2023).
Where two headings read alike, the source gives them in different places.

Columns and labels:
iPSC-derived BMECs = experiment: Sodium fluorescein permeability across iPSC-derived BMEC monolayer on Transwell; format: in vitro ADME, human; settings: CS03iCTRn2-derived BMECs
Method: (§1) Permeability Measurements—Sodium fluorescein (10 μM, 376 Daltons; Sigma) was utilized to determine the permeability of the iPSC-BMEC barrier. Following 48 h of monoculture or co-culture, fresh EC medium was added to the Transwell system, with EC medium containing sodium fluorescein added to the top chamber and EC medium lacking sodium fluorescein added to the bottom chamber. 150 uL aliquots were taken from the bottom chamber at 0, 15, 30, 45, and 60 min, and immediately replaced with pre-warmed EC medium. Permeability coefficients were calculated based on the cleared volume of fluorescein from the top chamber to the bottom chamber.

[1] = as above; format: in vitro ADME, human; settings: human, 48 h
Method: as §1

decrease of fluorescein permeability, isogenic co-culture compared to monoculture (iPSC-derived BMECs): 13 fold
Papp at 60 min, 10 μM ([1]; IMR90-4 iPSC-derived BMECs co-cultured with EZ-sphere-derived neurons and astrocytes (1:3), read-out: sodium fluorescein permeability Pe): 0.12 ± 0.001 ×10⁻⁶ cm/s
Papp at 60 min, 10 μM ([1]; IMR90-4 iPSC-derived BMECs co-cultured with NPC-derived astrocytes and neurons, read-out: sodium fluorescein permeability Pe): 0.2 ± 0.1 ×10⁻⁶ cm/s
Papp at 60 min, 10 μM ([1]; IMR90-4 iPSC-derived BMECs co-cultured with primary rat astrocytes, read-out: sodium fluorescein permeability Pe): 0.19 ± 0.01 ×10⁻⁶ cm/s
Papp at 60 min, 10 μM ([1]; isogenic co-culture: CS03iCTRn2-derived BMECs with neurons:astrocytes (1:3), read-out: fluorescein permeability Pe): 0.062 ± 0.011 ×10⁻⁶ cm/s
Papp at 60 min, 10 μM ([1]; monocultured CS03iCTRn2-derived BMECs, read-out: fluorescein permeability Pe): 0.81 ± 0.09 ×10⁻⁶ cm/s
Papp at 60 min, 10 μM ([1]; monocultured IMR90-4 iPSC-derived BMECs, read-out: sodium fluorescein permeability Pe): 0.48 ± 0.03 ×10⁻⁶ cm/s
SMILES: O=C1OC2(c3ccc(O)cc3Oc3cc(O)ccc32)c2ccccc21 [sodium fluorescein, Sodium fluorescein]
